{"source": "paper PMC4222986", "about": "(Journal of neurochemistry, 2014)", "key": {"D2 dopamine receptor": {"test_system": "D2 dopamine receptor", "conditions": "forskolin-dependent adenylyl cyclase; ref Tu et al., 2011a; cited from earlier work"}, "D3 dopamine receptor": {"test_system": "D3 dopamine receptor", "conditions": "forskolin-dependent adenylyl cyclase; ref Tu et al., 2011a; cited from earlier work"}, "[1]": {"target": "T1, human D3 dopamine receptors (Homo sapiens, UniProt P35462)", "T1 sequence (P35462 whole entry)": "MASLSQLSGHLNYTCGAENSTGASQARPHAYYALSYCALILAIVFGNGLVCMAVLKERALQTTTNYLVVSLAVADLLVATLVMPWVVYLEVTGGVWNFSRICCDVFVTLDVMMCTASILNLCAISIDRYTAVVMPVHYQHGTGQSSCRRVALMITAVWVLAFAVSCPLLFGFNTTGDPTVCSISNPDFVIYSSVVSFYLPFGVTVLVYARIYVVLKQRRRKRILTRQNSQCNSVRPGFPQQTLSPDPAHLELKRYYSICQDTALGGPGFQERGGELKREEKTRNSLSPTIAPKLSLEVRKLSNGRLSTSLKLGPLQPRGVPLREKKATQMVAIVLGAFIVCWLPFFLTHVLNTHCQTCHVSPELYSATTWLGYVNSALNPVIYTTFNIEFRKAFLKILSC", "assay": "competitive radioligand binding with [3H]LS-3-134, hD3 HEK-293"}, "[2]": {"target": "rat D3 dopamine receptors (Rattus norvegicus, UniProt P19020)", "sequence (P19020 whole entry)": "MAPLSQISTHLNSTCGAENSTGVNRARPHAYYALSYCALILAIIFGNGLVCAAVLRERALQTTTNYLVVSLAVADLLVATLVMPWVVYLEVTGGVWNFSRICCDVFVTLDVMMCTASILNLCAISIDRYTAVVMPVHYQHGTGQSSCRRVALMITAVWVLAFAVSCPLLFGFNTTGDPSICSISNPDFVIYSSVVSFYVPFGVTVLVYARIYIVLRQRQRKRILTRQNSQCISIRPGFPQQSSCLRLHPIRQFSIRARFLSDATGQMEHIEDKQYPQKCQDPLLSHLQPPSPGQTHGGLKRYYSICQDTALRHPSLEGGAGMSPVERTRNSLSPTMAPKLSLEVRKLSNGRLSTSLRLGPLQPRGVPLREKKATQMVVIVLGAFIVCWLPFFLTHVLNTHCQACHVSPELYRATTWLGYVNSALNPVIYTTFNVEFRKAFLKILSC", "assay": "competitive radioligand binding with [3H]LS-3-134, rD3 HEK-293"}, "rat striatal tissue": {"target": "rat striatal tissue (Rattus norvegicus, UniProt P19020)", "sequence (P19020 whole entry)": "as above", "assay": "competitive radioligand binding with [3H]LS-3-134, rat striatal tissue", "conditions": "Ki values [^3H]LS-3-134 rat striatum, mean ± S.E.M., n ≥ 3, Cheng & Prusoff"}, "[3]": {"target": "T2, human D2 dopamine receptors (Homo sapiens, UniProt P14416)", "T2 sequence (P14416 whole entry)": "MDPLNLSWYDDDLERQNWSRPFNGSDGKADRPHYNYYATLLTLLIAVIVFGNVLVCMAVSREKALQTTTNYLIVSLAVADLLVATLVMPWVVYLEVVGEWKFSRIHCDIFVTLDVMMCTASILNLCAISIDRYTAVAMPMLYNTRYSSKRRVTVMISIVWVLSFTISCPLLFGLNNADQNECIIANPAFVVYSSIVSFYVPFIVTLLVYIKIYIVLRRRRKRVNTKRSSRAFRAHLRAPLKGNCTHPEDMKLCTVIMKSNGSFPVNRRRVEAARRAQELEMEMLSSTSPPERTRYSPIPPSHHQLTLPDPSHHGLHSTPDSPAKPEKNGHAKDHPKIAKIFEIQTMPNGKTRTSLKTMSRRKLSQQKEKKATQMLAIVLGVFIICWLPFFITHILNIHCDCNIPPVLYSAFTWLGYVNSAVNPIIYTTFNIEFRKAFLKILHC", "conditions": "ratio of Ki values of Table I"}, "[4]": {"target": "T2, human D2 dopamine receptors", "conditions": "ref Vangveravong et al., 2006; Luedtke et al., 2012; cited from earlier work"}, "[5]": {"target": "T1, human D3 dopamine receptors", "assay": "[125I]IABN radioligand binding, human D3 receptors stably expressed in HEK cells", "conditions": "ratio of Ki values of Table I"}, "[6]": {"target": "T1, human D3 dopamine receptors", "conditions": "ref Tu et al., 2011a; cited from earlier work"}, "[7]": {"test_system": "hD2 and hD3 dopamine receptors expressed in HEK-293 cells", "assay": "D2 and D3 dopamine receptor combination experiments", "assay_type": "binding, human", "conditions": "radioligand about Kd for hD3, 37°C 30 min, (+)-butaclamol nonspecific"}, "D2 and D3 receptors": {"test_system": "D2 and D3 receptors", "conditions": "humans; ref Tziortzi et al., 2011; Payer et al., 2014a,b; cited from earlier work"}, "[8]": {"conditions": "Ki values [^3H]LS-3-134 rD3-HEK 293, mean ± S.E.M., n ≥ 3, Cheng & Prusoff"}}, "note": "Where a name gives a salt, the structure may show the parent alone. Read-outs that look alike come from different tables or passages of the source.", "data": [{"smiles": "O=C(NCCCCN1CCN(c2ccccc2OCCF)CC1)c1ccc(-c2ccsc2)cc1", "note": "[LS-3-134]", "values": [{"measurement": "% of full agonist activity at D2", "setting": "D2 dopamine receptor", "result": 29, "unit": "%"}, {"measurement": "% of full agonist activity at D3", "setting": "D3 dopamine receptor", "result": 35, "unit": "%"}]}, {"smiles": "COc1ccc2[nH]cc(CN3CCC(O)(c4ccc(SC)cc4)CC3)c2c1", "note": "[SV 293, 1-((5-methoxy-1H-indol-3-yl)methyl)-4-(4-(methylthio)phenyl)piperidin-4-ol]", "values": [{"measurement": "Ki", "setting": "[1]; Ki values [^3H]LS-3-134 hD3-HEK 293, mean ± S.E.M., n ≥ 3, Cheng & Prusoff", "result": "324 ± 39.2", "unit": "nM"}, {"measurement": "Ki", "setting": "[2]; [8]", "result": "892 ± 44.2", "unit": "nM"}, {"measurement": "Ki", "setting": "rat striatal tissue", "result": "323 ± 49.1", "unit": "nM"}, {"measurement": "Binding Selectivity D3:D2", "setting": "[3]", "result": 105}, {"measurement": "Binding Selectivity D4:D2", "setting": "[3]", "result": 103}, {"measurement": "selectivity for hD2 dopamine receptors compared to hD3", "setting": "[4]", "result": 100, "unit": "fold"}]}, {"smiles": "COc1ccccc1N1CCN(CCCCNC(=O)c2ccc(N(C)C)cc2)CC1", "note": "[WC 10, 4-(dimethylamino)-N-(4-(4-(2-methoxyphenyl)piperazin-1-yl)butyl)benzamide]", "values": [{"measurement": "Binding Selectivity D2:D3", "setting": "[5]", "result": 43}, {"measurement": "Binding Selectivity D4:D3", "setting": "[5]", "result": 1120}, {"measurement": "Ki", "setting": "[1]", "result": "1.25 ± 0.36", "unit": "nM"}, {"measurement": "Ki", "setting": "[2]", "result": "5.71 ± 0.81", "unit": "nM"}, {"measurement": "Ki", "setting": "rat striatal tissue", "result": "2.46 ± 0.19", "unit": "nM"}, {"measurement": "D3 vs. D2 dopamine receptor subtype binding selectivity", "setting": "[6]", "result": 43, "unit": "fold"}]}, {"smiles": "CCc1cc(Cl)c(OC)c(C(=O)NC[C@@H]2CCCN2CC)c1O", "note": "[Eticlopride, S-(−)-3-chloro-5-ethyl-N-[(1-ethyl-2-pyrrolidinyl)methyl]-6-hydroxy-2-methoxybenzamide hydrochloride]", "values": [{"measurement": "Ki", "setting": "[2]; [8]", "result": "0.12 ± 0.05", "unit": "nM"}, {"measurement": "Ki", "setting": "rat striatal tissue", "result": "0.37 ± 0.09", "unit": "nM"}]}, {"smiles": "CCN1CCC[C@H]1CNC(=O)c1c(O)c(Cl)cc(Cl)c1OC", "note": "(racemic) [[^3H]raclopride]", "values": [{"measurement": "specific binding on adding increasing amounts of hD2 membranes to constant hD3", "setting": "[7]", "result": "increased specific binding was observed"}]}, {"smiles": "COc1cc([125I])cc(C(=O)NC2CC3CCCC(C2)N3Cc2ccccc2)c1OC", "note": "(stereo not shown) [[^125I]IABN]", "values": [{"measurement": "specific binding on adding increasing amounts of hD2 membranes to constant hD3", "setting": "[7]", "result": "increased specific binding was observed"}]}, {"smiles": "CCCN1CCO[C@@H]2c3cc(O)ccc3CC[C@H]21", "note": "[[^11C](+)-PHNO]", "values": [{"measurement": "receptors labelled in PET imaging", "setting": "D2 and D3 receptors", "result": "label both D2 and D3 receptors"}]}]}
